Several values for one entry are separate records, joined by “and”; a condition that tells them apart may be missing. Equal entries are not always repeated. Entries after “also recorded” stand apart in the source; their conditions may differ.
Tests used:
P-gp [1] = conditions: ref [26], [27]; cited from earlier work
OCT1 = target: T1, OCT1 (Homo sapiens, UniProt O15245); assay: OCT1 activity: DAPI accumulation in HEK-OCT1 cells; conditions: for inhibition at 100 μM: human, pH 7.4
T1 sequence (O15245 1-554): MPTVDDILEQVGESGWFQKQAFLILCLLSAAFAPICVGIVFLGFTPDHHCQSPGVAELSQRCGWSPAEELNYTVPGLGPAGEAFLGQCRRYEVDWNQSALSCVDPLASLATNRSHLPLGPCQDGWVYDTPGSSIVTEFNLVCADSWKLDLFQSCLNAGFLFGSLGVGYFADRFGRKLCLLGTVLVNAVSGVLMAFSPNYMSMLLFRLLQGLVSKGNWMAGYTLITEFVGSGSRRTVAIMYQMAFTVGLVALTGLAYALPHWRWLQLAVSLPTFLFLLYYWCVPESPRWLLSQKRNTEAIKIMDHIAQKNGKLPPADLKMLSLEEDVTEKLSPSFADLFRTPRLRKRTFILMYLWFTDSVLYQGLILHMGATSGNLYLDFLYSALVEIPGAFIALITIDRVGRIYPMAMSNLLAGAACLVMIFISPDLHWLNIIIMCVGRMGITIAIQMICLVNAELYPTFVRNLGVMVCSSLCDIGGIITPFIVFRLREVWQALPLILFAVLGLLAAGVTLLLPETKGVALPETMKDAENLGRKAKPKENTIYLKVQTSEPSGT
Experimental: (§1) The effects of pyrethroids on activity of ABC and SLC transporters were determined through measuring cellular accumulation or retention of fluorescent or radiolabeled reference substrates for transporters, in the presence or absence of reference inhibitors, as previously described. The nature of cells and reference substrates and inhibitors used for transport assays are summarized in S3 Table.
The nature of substrates and reference inhibitors and the incubation times with substrates, that varied according to the transporter, were selected in agreement with previous studies and are indicated in S3 Table. The total incubation volume with substrates was 200 μL/well. […] An aliquot of cell lysate (5 μL) was then taken for determining cellular protein content by the Bradford method.
(§2) Intracellular concentrations of reference substrates were initially expressed as fluorescence arbitrary units (for fluorescent dye substrates) or as moles (for radiolabeled substrates) and normalized to cellular protein content, determined by the Bradford method. They were finally used for calculating percentage of transporter activity, according to the following equations [41, 45]: %ABCtransporter activity=([Substrateref inh]-[Substratepyrethroid])×100/([Substrateref inh]-[Substratecontrol]) (1) %SLC transporter activity=([Substratepyrethroid]-[Substratref inh])×100/([Substratecontrol]-[Substrateref inh]) (2) with [Substratepyrethroid] = cellular concentration of reference substrate in the presence of pyrethroid, [Substrateref inh] = cellular concentration of reference substrate in the presence of reference inhibitor and [Substratecontrol] = cellular concentration of reference substrate in control cells not exposed to pyrethroid or reference inhibitor.
(§3) The initial tested concentration of pyrethroids was 100 μM. […] Such concentrations were calculated using GraphPad Prism software (GraphPad Software, La Jolla, CA), through nonlinear regression based on the four parameter logistic function using the following equations: […]

P-gp [2] = target: P-gp (Homo sapiens, UniProt P08183); assay: P-gp activity: rhodamine 123 accumulation in MCF7R cells; conditions: pyrethroid 100 μM
P-gp (Homo sapiens, UniProt P08183), sequence (P08183 whole entry): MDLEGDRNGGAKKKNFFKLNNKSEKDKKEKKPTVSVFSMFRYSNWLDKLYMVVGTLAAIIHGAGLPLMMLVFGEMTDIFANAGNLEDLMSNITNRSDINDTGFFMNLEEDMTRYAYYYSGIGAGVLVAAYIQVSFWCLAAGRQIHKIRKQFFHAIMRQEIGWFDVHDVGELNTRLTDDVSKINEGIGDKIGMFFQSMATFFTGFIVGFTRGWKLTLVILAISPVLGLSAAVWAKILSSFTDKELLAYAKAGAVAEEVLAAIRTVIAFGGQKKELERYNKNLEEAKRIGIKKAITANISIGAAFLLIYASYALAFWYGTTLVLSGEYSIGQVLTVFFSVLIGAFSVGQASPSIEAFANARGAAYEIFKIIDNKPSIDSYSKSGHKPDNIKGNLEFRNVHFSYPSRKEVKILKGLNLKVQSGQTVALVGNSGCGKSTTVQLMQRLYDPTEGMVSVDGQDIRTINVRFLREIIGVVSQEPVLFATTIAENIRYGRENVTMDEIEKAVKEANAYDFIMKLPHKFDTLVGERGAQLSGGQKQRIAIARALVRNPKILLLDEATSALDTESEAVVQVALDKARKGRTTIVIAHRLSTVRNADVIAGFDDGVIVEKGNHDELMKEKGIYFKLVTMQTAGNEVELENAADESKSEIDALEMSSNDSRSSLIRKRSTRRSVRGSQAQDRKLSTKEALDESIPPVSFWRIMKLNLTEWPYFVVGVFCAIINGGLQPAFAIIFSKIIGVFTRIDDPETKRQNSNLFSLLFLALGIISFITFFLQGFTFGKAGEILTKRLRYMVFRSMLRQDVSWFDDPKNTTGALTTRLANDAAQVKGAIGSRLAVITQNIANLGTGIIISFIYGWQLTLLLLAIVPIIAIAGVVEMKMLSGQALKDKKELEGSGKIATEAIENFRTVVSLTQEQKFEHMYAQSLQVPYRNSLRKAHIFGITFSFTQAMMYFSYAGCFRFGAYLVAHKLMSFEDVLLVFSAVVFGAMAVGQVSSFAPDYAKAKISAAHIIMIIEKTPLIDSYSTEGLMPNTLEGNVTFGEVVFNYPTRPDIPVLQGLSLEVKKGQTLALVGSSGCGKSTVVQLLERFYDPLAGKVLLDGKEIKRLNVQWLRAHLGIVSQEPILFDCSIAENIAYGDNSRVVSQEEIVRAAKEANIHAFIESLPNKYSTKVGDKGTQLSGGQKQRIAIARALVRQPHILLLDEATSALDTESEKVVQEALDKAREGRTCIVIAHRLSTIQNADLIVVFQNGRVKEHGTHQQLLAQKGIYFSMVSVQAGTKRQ
Experimental: as §1
For accumulation assays (performed for all transporters, excepted BCRP), transporter-expressing cells usually cultured in 48-well plates were first incubated at 37°C with reference substrates in the absence (control) or presence of pyrethroids or reference inhibitors, in a well-defined transport assay medium, consisting of 136 mM NaCl, 5.3 mM KCl, 1.1mM KH2PO4, 0.8 mM MgSO4, 1.8 mM CaCl2, 10 mM HEPES, 11 mM D-glucose and adjusted to pH = 7.4 (excepted for MATE transporter assays, for which pH was set to 8.4). The nature of substrates and reference inhibitors and the incubation times with substrates, that varied according to the transporter, were selected in agreement with previous studies and are indicated in S3 Table. The total incubation volume with substrates was 200 μL/well. After washing twice in phosphate-buffered saline (PBS) (200 μL/well/washing), cells were lysed in distilled water (155 μL/well). An aliquot of cell lysate (5 μL) was then taken for determining cellular protein content by the Bradford method. The rest of lysate (150 μL/well) was used for measuring intracellular accumulation of reference substrates by scintillation counting or spectrofluorimetry using a SpectraMax Gemini SX spectrofluorometer (Molecular Devices, Sunnyvale, CA, USA) (excitation and emission wavelengths were 485 and 535 nm, respectively, for rhodamine 123 and fluorescein, and 355 and 460 nm, respectively, for DAPI).
as §2, §3

OATP1B1 = target: T2, OATP1B1 (Homo sapiens, UniProt Q9Y6L6); assay: OATP1B1 activity: E3S accumulation in CHO-OATP1B1 cells; assay type: cell-based; conditions: pyrethroid 100 μM; CHO-OATP1B1 cells, E3S
T2 construct: expressed in transfected cells; host or cells: CHO
T2 sequence (Q9Y6L6 1-691): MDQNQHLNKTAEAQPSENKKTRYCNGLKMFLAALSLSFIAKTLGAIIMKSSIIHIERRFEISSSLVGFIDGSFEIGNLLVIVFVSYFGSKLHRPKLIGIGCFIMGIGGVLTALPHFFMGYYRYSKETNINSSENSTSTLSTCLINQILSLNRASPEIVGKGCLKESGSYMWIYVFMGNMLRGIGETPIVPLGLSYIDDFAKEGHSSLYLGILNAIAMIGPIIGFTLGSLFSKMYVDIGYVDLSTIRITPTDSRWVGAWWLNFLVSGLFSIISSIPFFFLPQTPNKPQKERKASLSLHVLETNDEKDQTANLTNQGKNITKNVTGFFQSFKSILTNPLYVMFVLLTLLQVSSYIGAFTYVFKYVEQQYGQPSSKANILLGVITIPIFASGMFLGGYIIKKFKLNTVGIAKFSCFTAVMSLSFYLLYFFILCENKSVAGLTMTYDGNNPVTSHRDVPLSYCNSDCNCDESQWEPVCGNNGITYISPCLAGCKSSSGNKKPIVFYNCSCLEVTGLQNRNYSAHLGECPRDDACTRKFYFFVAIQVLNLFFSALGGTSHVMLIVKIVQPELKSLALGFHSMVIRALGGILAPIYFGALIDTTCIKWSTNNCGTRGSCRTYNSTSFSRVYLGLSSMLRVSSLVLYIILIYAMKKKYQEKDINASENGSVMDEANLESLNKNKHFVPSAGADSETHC
Experimental: (§4) The initial tested concentration of pyrethroids was 100 μM.

BCRP = target: T3, BCRP (Homo sapiens, UniProt Q9UNQ0); assay: BCRP activity: Hoechst 33342 retention in HEK-BCRP cells; assay type: cell-based; conditions: pyrethroid 100 μM
T3 construct: expressed in transfected cells; host or cells: HEK293
T3 sequence (Q9UNQ0 1-655): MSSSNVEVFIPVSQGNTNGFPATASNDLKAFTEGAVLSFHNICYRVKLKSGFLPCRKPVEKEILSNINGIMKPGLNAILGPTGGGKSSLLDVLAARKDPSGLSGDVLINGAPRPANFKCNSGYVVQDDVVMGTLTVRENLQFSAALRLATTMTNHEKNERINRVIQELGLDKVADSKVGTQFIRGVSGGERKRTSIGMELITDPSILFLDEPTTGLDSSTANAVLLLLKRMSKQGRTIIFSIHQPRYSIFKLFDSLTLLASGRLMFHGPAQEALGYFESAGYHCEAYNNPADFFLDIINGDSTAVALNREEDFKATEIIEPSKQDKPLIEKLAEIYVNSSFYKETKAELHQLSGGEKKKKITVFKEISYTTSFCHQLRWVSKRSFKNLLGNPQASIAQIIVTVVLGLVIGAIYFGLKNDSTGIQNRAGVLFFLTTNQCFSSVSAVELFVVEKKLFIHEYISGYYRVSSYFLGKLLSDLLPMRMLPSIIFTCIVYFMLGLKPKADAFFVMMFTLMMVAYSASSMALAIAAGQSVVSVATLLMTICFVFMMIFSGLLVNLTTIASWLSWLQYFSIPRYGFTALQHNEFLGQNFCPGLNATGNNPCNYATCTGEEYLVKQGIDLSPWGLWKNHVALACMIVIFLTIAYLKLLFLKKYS
Experimental: For retention assay (used for BCRP activity), HEK-BCRP cells cultured in 48-well plates were first loaded at 37°C with transport assay (200 μL/well) containing 16.2 μM Hoechst 33342 for 30 min. After washing twice in PBS (200 μL/well/washing), cells were reincubated in Hoechst 33342-free transport assay medium (200 μL/well) at 37°C for 90 min in the absence or presence of pyrethroids or of the BCRP reference inhibitor fumitremorgin C used at 10 μM. Cells were next lysed in distilled water (155 μL/well) after washing twice in PBS (200 μL/well/washing). The cell lysate was finally used for determining cellular protein content and intracellular retention of Hoechst 33342 (by spectrofluorimetry: excitation and emission wavelengths were 355 and 460 nm, respectively), as described above.
as §4

[3] = parameters: method as in PMID 12708229; conditions: human subjects environmentally exposed; ref [70]; cited from earlier work
BCRP ATPase activity = conditions: ref [28]; cited from earlier work
P-gp [4] = conditions: ref [78]; cited from earlier work

Row | Structure (SMILES) | effect on P-gp activity or ATPase activity (P-gp [1]) | effect on OCT1 activity (OCT1; pyrethroid 100 μM, DAPI) | effect on P-gp activity (P-gp [2]) | inhibition of OATP1B1 activity (OATP1B1) | effect on BCRP activity (BCRP) | blood concentration [3] | effect on BCRP ATPase activity (BCRP ATPase activity) | inhibition at 100 μM (OCT1) | efflux by P-gp (P-gp [4])
1 | CC(C)[C@H](C(=O)O[C@H](C#N)c1cccc(Oc2ccccc2)c1)c1ccc(Cl)cc1 [esfenvalerate] | inhibit | failed to significantly alter | did not alter | less than 50% |  |  |  |  | 
2 | CC1(C)C(C=C(Cl)Cl)C1C(=O)OCc1cccc(Oc2ccccc2)c1 (stereo not shown) [permethrin] | inhibit |  | did not alter |  | without inhibiting | < 5 μg/L and < 12.8 nM | blocked; also recorded: inhibited |  | 
3 | CC(C)=CC1C(C(=O)OCc2coc(Cc3ccccc3)c2)C1(C)C (stereo not shown) [resmethrin] |  |  |  |  | without inhibiting |  | inhibited | 48.8% | 
4 | CC1(C)[C@H](C(=O)O[C@H](C#N)c2cccc(Oc3ccccc3)c2)[C@@H]1C=C(Br)Br [deltamethrin] |  |  | did not inhibit |  |  | < 5 μg/L and < 12.8 nM |  | 30.1 to 48.8% | not effluxed by P-gp

Source: paper PMC5242521 (PLoS ONE, 2017)
